Reference: patent publication US11112409B2, “Systems and compositions for diagnosing pathogenic fungal infection and methods of using the same” (priority 2016, dated 2021)
“Also recorded” adds a separate entry of the source. Square brackets hold non-standard residues; d marks the D form. Ends that are not written are not given here. Peptide text beside a SMILES is read from it. * marks the point of attachment. Lys(DNP) = Lys carrying DNP quencher; Sta = CC(C)C[C@H](N)[C@@H](O)CC(=O)O; Isovaleryl = CC(C)CC(=O)*; Nle = CCCC[C@H](N)C(=O)O

How the values were obtained:
Kex2 = test: MSP-MS profiling of conditioned media with inhibitor pretreatment, cleavage sites assigned to Kex2; type: biochemical, C. albicans; settings: 1 mM EDTA or 10 μM pepstatin A
Excerpt: FIG. 8 depicts global substrate specificity profiling of recombinant Kex2 from Saccharomyces cerevisiae. (top) Time-dependent generation of cleavages following dibasic (P2-P1) K/R-R residues in the MSP-MS library for recombinant Kex2 and C. albicans wild-type (SN425) conditioned media from 24-hour biofilm and planktonic cultures. Cleavage sites assigned to Kex2 in the conditioned media profiles were sensitive to EDTA and insensitive to pepstatin treatments. […] This is illustrated in the differential cleavage pattern of an example MSP-MS peptide.

[1] = system: pepstatin-sensitive protease activity in rat serum; test: Sap6 substrate cleavage in blood/serum from rat biofilm catheter and IV infection models; type: biochemical
Procedure: FIG. 16 depicts the detection of pepstatin-sensitive activity in serum from C. albicans biofilm rat catheter and disseminated infection models. Detection of pepstatin-sensitive protease activity with the TFSYnRWP (SEQ ID NO: 23) fluorogenic probe in rat serum samples. Blood was collected both directly from C. albicans biofilm-infected catheters and peripherally 48 hours post biofilm infection (N=3 rats). Blood was also sampled peripherally 24 hours post IV infection with C. albicans (10^6 CFUs) (N=3 rats). Uninfected rats were used as a healthy control (N=3 rats). Activity assays were carried out using serum samples that had been diluted 25-fold into pH 4.0 buffer.
FIG. 22 depicts detection of infection-specific aspartyl protease activity in serum from a rat catheter biofilm model using the Sap6-cleavable probe. Serum was collected both directly from the biofilm-infected catheter, peripherally from the rat jugular vein, and from the jugular vein of an uninfected control rat (n=2).
To provide validation of the protease activity-based diagnostic approach in a rat biofilm catheter model, blood was directly sampled from (i) the catheters of rats with introduced C. albicans biofilms, (ii) peripherally from the same rats, and, (iii) following IV infection, and (iv) as a control, from rats not exposed to C. albicans.

[2] = system: aspartyl protease activity in conditioned media; test: Pepstatin pretreatment of conditioned media, fluorogenic substrate cleavage; type: biochemical, C. albicans; settings: 10 μM pepstatin, VFILWRTE and TFSYnRWP substrates
Procedure: FIGS. 4A-4B depict probe activity in biofilm and planktonic conditioned media following pepstatin A pretreatment and in conditioned media from sap5Δ/Δ, sap6Δ/Δ, and sap5/6ΔΔ/ΔΔ deletion strains. […] Matched comparison to wild-type (SN425) conditioned media is provided (FIG. 12).
To further confirm probe selectivity for the target proteases, conditioned media preparations were also assayed from sap5Δ/Δ and sap6Δ/Δ single deletion mutant strains and a sap5/6ΔΔ/ΔΔ double deletion mutant strain (FIG. 4B). […] Indeed, shotgun proteomics analysis on matched biofilm conditioned media preparations from the wild-type reference and mutant strains confirmed an increase in Sap6 levels associated with the sap5Δ/Δ mutant strain. In contrast, there was no observable increase in Sap5 levels associated with the sap6Δ/Δ mutant strain in agreement with the activity results (Table 5). We note that substrate cleavage in the sap5/6ΔΔ/ΔΔ double deletion mutant strain indicates proteolytic activity from additional proteases that are in lower abundance, possibly reflecting compensation for loss of SAP5/SAP6.

recombinant Sap6 = test: Internally quenched fluorogenic substrate activity assay with recombinant Sap6; type: biochemical, C. albicans; settings: 2 μg/mL recombinant Sap, 10 μM substrate, pH 5.5
Procedure: Specific activity was determined with 2 μg/mL recombinant Saps and the substrates […] (10 μM, SEQ ID NO: 22), IYRnHVQL (25 μM; SEQ ID NO: 24), WPSnNKVG (25 μM; SEQ ID NO: 25), and TFSYnRWP (10 μM; SEQ ID NO: 23). RFU was converted to moles of product formation using a correction factor experimentally determined for each substrate.
For each protease, two 8-mer peptide sequences containing P4-P4′ residues from Sap5- or Sap6-favored cleavages were selected for incorporation into internally quenched fluorogenic peptides. The fluorogenic probes were synthesized bearing either a 5-carboxyfluorescein or 7-methoxycoumarin fluorophore with a corresponding quencher positioned at opposing termini such that peptide cleavage yields a fluorescence signal.
Activity assays with internally quenched fluorogenic substrates were performed up to one hour in black 96-well round bottom plates (Costar) using a BioTek Synergy H4 Hybrid Multi-Mode Microplate Reader set to 37° C. The following excitation/emission wavelengths were used: 328 nm/393 nm (gain 96) for MCA and Ex/Em of 485 nm/538 nm (gain 94) for 5-FAM. RFU was corrected to moles of product formation as appropriate using a conversion factor calculated from the total proteolytic hydrolysis of each substrate. Activity assays with conditioned media were performed with 10 μM substrate and either 20 μg/mL protein sample for […] […]

[3] = system: conditioned media from C. albicans biofilm and planktonic cultures; test: Fluorogenic substrate cleavage in biofilm and planktonic conditioned media; type: biochemical; settings: for preferential cleavage by biofilm culture medium (B/P): biofilm versus planktonic conditioned media
Procedure: Activity assays with internally quenched fluorogenic substrates were performed up to one hour in black 96-well round bottom plates (Costar) using a BioTek Synergy H4 Hybrid Multi-Mode Microplate Reader set to 37° C. The following excitation/emission wavelengths were used: 328 nm/393 nm (gain 96) for MCA and Ex/Em of 485 nm/538 nm (gain 94) for 5-FAM. RFU was corrected to moles of product formation as appropriate using a conversion factor calculated from the total proteolytic hydrolysis of each substrate. Activity assays with conditioned media were performed with 10 μM substrate and either 20 μg/mL protein sample for […] (SEQ ID NO: 22) or 10 μg/mL protein sample for TFSYnRWP (SEQ ID NO: 23). For assays with recombinant Saps, 2 μg/mL Sap5 and Sap6 were used with the following substrate concentrations: […] (10 μM; SEQ ID NO: 22), IYRnHVQL (25 μM; SEQ ID NO: 24), WPSnNKVG (25 μM; SEQ ID NO: 25), and TFSYnRWP (10 μM; SEQ ID NO: 23).

`O=C(O)CN(CCN(CC(=O)O)CC(=O)O)CC(=O)O` [EDTA] was tested, and the “sensitivity of Kex2-assigned cleavage sites to inhibitor treatment” value (Kex2) was “sensitive”.

`CC(C)CC(=O)N[C@H](C(=O)N[C@H](C(=O)N[C@@H](CC(C)C)[C@@H](O)CC(=O)N[C@@H](C)C(=O)N[C@@H](CC(C)C)[C@@H](O)CC(=O)O)C(C)C)C(C)C` [Pepstatin A] (Isovaleryl-VV[Sta]A[Sta]-OH) was tested, and the “effect of pepstatin pretreatment on TFSYnRWP cleavage in blood of infected rats” value ([1]; pepstatin pretreatment) was “significantly reduced”, the “effect of pepstatin pretreatment on substrate cleavage” value [2] was “significant reduction in substrate cleavage” and the “sensitivity of Kex2-assigned cleavage sites to inhibitor treatment” value (Kex2) was “insensitive”.

In the case of “DArg-DArg-Lys(MCA)-Thr-Phe-Ser-Tyr-Nle-Arg-Trp-Pro-Lys(DNP) ({dR-dR-Lys(MCA)}-TFSY[Nle]RWP-{Lys(DNP)}) [TFSYnRWP, internally quenched fluorogenic substrate for Sap6]”, the “substrate cleavage in blood harvested from infected rats” value ([1]; C. albicans biofilm catheter or IV infected rats) is reported as “readily detected”, the “cleavage activity in uninfected rats” value ([1]; rats not exposed to C. albicans) is reported as “absent” and the “specific activity and selectivity for Sap6” value (recombinant Sap6) is reported as “highest specific activity and selectivity; also recorded: high specific activity and selectivity”. The “preferential cleavage by biofilm culture medium (B/P)” value [3] was 4.4 fold, the “substrate activity in sap5Δ/Δ deletion strain conditioned media” value ([3]; sap5Δ/Δ single deletion strain) was “increased” and the “substrate cleavage, biofilm versus planktonic conditioned media” value ([3]; wild-type, 24-hour conditioned media, 10 μM substrate) was “higher biofilm activity”.

In the case of “VFILWRTE (also: CPQ2 quencher, place not given here, 5-FAM, place not given here, DArg-DArg-NH2, place not given here) [internally quenched fluorogenic substrate for Sap5]”, the “preferential cleavage by biofilm culture medium (B/P)” value [3] is reported as 10 fold.
